Converted amounts (≈) assume the structure as drawn. Read-outs that look alike come from different tables or passages of the source.
How the values were obtained:
[1] = Dissolution test in fed state simulated intestinal fluid (FeSSIF); format: physicochemical; conditions: FeSSIF pH 5, room temperature
Procedure: 4.040 g of NaOH (pellets), 8.650 g of glacial acetic acid and 11.874 g of NaCl were dissolved in about 0.9 L of purified water. The pH was adjusted to 5 with either 1 N NaOH or 1 N HCl. The total volume of the mixture was made up to 1.0 L with purified water at room temperature.
To about 50 mL of blank FeSSIF buffer was added 1.120 g of SIF Powder Original (Biorelevant.com Ltd, Product code: FFF03, UK), the mixture was stirred until powder was completely dissolved. The total volume of the mixture was made up to 100 mL with blank FeSSIF buffer at room temperature.
(§1) Approximately 1-2 mg of each compound was added in excess into […] of buffer at room temperature. Each sample is placed in a microanalysis glass tube, which was sonicated for 1 h and agitated for 2 h. All suspensions were left overnight (about 16 h). On the next day, all pH values were measured with a pH-meter and the samples were filtered into a V-bottom plate with a micronic filterplate to separate the solid material from the solution. Then, all solutions were diluted into 96 well V-bottom microplates and analyzed by UPLC-UV.
(§2) The calibration line was established by UPLC using 5 different dilutions of the compound in a DMSO stock solution, made in micronic tubes (concentration approximately 1 mg/mL). Dilutions took place with DMSO (in special circumstances, with acetonitrile, or 80% HCl 0.1 N/20% acetonitrile). From this regression equation the solubility of the compound was determined. In cases where the compound was completely dissolved in the buffer, the value for equilibrium solubility was assumed to be higher than the value determined by UPLC and reported as such.

[2] = Lyophilisation solubility assay (LYSA), kinetic solubility; format: physicochemical; conditions: aqueous buffer; 0.05 M phosphate buffer (pH 6.5), from 10 mM DMSO stock after evaporation
Excerpt: The solubility of a substance can be broadly defined as the maximum amount of the substance that dissolves in a specified volume of solvent. However, it is important to understand that the solubility of a compound can vary drastically depending on the condition of the solvent (e.g. temperature and pH) and the physiochemical properties of the compound (e.g. ionisation and crystallinity). These critical factors need to be considered during solubility determination in order to generate high quality solubility data that will be useful in the progression of compounds through the discovery and development stages. The kinetic solubility of a compound is the maximum solubility of the fastest precipitating species of the compound; this is often measured using a stock solution of the compound dissolved in an organic solvent, typically dimethyl sulfoxide (DMSO), as the starting material. […] The precipitate formed, which is rarely determined during the assessment, could be any combination of various possible solid states of the compound. Given the level of supersaturation that could occur when an organic solvent is diluted in water, kinetic solubility values are typically higher than the corresponding thermodynamic (equilibrium) solubility values. Solubility assays in the early discovery process often determine kinetic solubility. The lyophilisation solubility assay (LYSA) is a high throughput kinetic solubility assay for the early drug discovery process.
Samples were prepared in duplicate from 10 mM DMSO stock solution. After evaporation of DMSO with a centrifugal vacuum evaporator, the compounds were solved in 0.05 M phosphate buffer (pH 6.5), stirred for one hour and shaken for two hours. After one night, the solutions were filtered using a microtiter filter plate. Then the filtrate and its 1/10 dilution were analyzed by HPLC-UV. […] The results were in μg/mL. […] It should be noted that metastable solid phases may form during the evaporation step, and the method might therefore produce higher solubility values than assays using the stable polymorph as the starting material.

[3] = Thermodynamic solubility assay (THESA), equilibrium solubility; format: physicochemical; conditions: 22 °C, aqueous buffer, thermodynamic from solid; 50 mM phosphate buffer (pH 6.5), room temperature (22±2° C.)
Procedure: The thermodynamic (equilibrium) solubility is the saturation solubility of a compound at the end of the dissolution process, where the dissolved compound is in equilibrium with the undissolved material in excess. The thermodynamic solubility is determined by dispensing a solid compound into a solvent. This is often deemed as the true solubility of the compound and is a critical piece of information in formulation development. The thermodynamic solubility assay (THESA) is a widely used tool for the measurement of equilibrium solubility for the later drug discovery process and is considered as a gold standard solubility assay.
Approximately 1-2 mg of each compound was added into 300 μL of 50 mM phosphate buffer (pH 6.5) at room temperature (22±2° C.). Each sample is placed in a microanalysis tube, which was sonicated for 1 h and shaken for 2 h. All suspensions were left overnight (about 16 h). On the next day, the samples were filtered into a V-bottom plate with a micronic filterplate to separate the solid material from the solution. Then, all solutions were diluted into 96 well V-bottom microplates and analyzed by UPLC-UV. The calibration line was established by UPLC using 5 different dilutions of the compound in a DMSO stock solution, made in micronic tubes (concentration approximately 1 mg/mL). Dilutions took place with DMSO. From this regression equation the solubility of the compound was determined. In cases where the drug was completely dissolved in the buffer, the value for equilibrium solubility was assumed to be higher than the value determined by UPLC and reported as such.

human TLR7 = target: T1, human TLR7 (Homo sapiens, UniProt Q9NYK1); assay: HEK293-Blue-hTLR7 cells assay (SEAP reporter, NF-κB activation)
T1 sequence (Q9NYK1 27-1049): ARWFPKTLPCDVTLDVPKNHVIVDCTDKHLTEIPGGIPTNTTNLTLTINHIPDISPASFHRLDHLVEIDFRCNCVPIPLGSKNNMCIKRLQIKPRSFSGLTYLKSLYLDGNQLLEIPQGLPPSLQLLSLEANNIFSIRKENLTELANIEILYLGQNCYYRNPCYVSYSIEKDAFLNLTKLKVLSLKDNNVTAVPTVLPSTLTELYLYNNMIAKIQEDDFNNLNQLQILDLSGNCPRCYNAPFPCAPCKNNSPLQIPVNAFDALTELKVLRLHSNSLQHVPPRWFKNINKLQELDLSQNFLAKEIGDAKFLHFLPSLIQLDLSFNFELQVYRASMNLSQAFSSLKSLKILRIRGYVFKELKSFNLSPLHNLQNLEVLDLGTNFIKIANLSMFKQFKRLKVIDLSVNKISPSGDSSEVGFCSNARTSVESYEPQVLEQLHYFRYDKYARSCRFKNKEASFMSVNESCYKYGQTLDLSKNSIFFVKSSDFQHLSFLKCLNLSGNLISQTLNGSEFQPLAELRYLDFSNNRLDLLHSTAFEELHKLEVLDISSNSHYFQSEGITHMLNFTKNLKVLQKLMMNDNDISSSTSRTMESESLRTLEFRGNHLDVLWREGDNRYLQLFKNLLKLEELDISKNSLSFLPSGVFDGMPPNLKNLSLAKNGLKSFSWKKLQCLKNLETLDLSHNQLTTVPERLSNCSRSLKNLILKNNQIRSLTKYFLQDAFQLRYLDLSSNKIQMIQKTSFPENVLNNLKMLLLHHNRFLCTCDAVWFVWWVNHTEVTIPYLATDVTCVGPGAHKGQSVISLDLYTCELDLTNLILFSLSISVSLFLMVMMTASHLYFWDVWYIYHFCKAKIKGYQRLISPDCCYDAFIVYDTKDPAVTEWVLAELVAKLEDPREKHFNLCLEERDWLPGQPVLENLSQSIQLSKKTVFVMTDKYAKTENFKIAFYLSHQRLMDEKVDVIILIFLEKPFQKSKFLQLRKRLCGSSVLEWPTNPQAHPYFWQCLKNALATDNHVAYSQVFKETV
Excerpt: A stable HEK293-Blue-h TLR7 cell line was purchased from InvivoGen (Cat. #: hkb-htlr7, San Diego, California, USA). These cells were designed for studying the stimulation of human TLR7 by monitoring the activation of NF-κB. A SEAP (secreted embryonic alkaline phosphatase) reporter gene was placed under the control of the IFN-β minimal promoter fused to five NF-κB and AP-1-binding sites. The SEAP was induced by activating NF-κB and AP-1 via stimulating HEK-Blue hTLR7 cells with TLR7 ligands. Therefore the reporter expression was regulated by the NF-κB promoter upon stimulation of human TLR7 for 20 hrs. The cell culture supernatant SEAP reporter activity was determined using QUANTI-Blue™ kit (Cat. #: rep-qb1, Invivogen, San Diego, Ca, USA) at a wavelength of 640 nm, a detection medium that turns purple or blue in the presence of alkaline phosphatase.
HEK293-Blue-hTLR7 cells were incubated at a density of 250,000˜450,000 cells/mL in a volume of 180 μL in a 96-well plate in Dulbecco's Modified Eagle's medium (DMEM) containing 4.5 g/L glucose, 50 U/mL penicillin, 50 mg/mL streptomycin, 100 mg/mL Normocin, 2 mM L-glutamine, 10% (V/V) heat-inactivated fetal bovine serum for 24 hrs. Then the HEK293-Blue-hTLR7 cells were incubated with addition of 20 μL test compound in a serial dilution in the presence of final DMSO at 1% and perform incubation under 37° C. in a CO2 incubator for 20 hrs.

[4] = Dissolution test in fasted state simulated intestinal fluid (FaSSIF); format: physicochemical; conditions: FaSSIF pH 6.5, room temperature
Procedure: 0.420 g of NaOH (pellets), 3.954 g of NaH2PO4 (monohydrate) and 6.186 g of NaCl were dissolved in about 0.9 L of purified water. The pH was adjusted to 6.5 with either 1 N NaOH or 1 N HCl. The total volume of the mixture was made up to 1.0 L with purified water at room temperature.
To about 50 mL of blank FaSSIF buffer was added 0.2240 g of SIF Powder Original (Biorelevant.com Ltd, Product code: FFF03, UK), the mixture was stirred until powder was completely dissolved. The total volume of the mixture was made up to 100 mL with blank FaSSIF buffer at room temperature.
as §1, §2

FeSSIF [1] | solubility kinetic [2] | solubility thermodynamic [3] | EC50 (human TLR7) | FaSSIF [4] | Structure (SMILES) | EC50 (human TLR7; read-out: HEK293-Blue-h TLR7 (EC50 (μM)), HEK293-Blue-hTLR7 cells, 20 hrs incubation, SEAP reporter)
>4267 µg/mL | > 560 µg/mL | > 4970 µg/mL | 0.012 µM | >3733 µg/mL | CC[P@](C)(=O)c1nc(N)c2[nH]c(=O)n(Cc3ccc(NCCN(C)C)nc3)c2n1 [Example 15-B, 6-amino-9-[[6-[2-(dimethylamino)ethylamino]-3-pyridyl]methyl]-2-[(S)-ethyl(methyl)phosphoryl]-7H-purin-8-one] | 
4536 µg/mL | > 580 µg/mL | 3000 µg/mL (≈ 6.94 mM) |  | 3436 µg/mL | CCC[P@](C)(=O)c1nc(N)c2[nH]c(=O)n(Cc3ccc(NCCN(C)C)nc3)c2n1 [Example 18-A, 6-amino-9-[[6-[2-(dimethylamino)ethylamino]-3-pyridyl]methyl]-2-[(S)-methyl(propyl)phosphoryl]-7H-purin-8-one] | 
>5000 µg/mL | > 580 µg/mL | 4020 µg/mL (≈ 9.3 mM) |  | >3767 µg/mL | CCC[P@@](C)(=O)c1nc(N)c2[nH]c(=O)n(Cc3ccc(NCCN(C)C)nc3)c2n1 [Example 18-B, 6-amino-9-[[6-[2-(dimethylamino)ethylamino]-3-pyridyl]methyl]-2-[(R)-methyl(propyl)phosphoryl]-7H-purin-8-one] | 

The remaining lines, values behind:

Structure (SMILES) | FeSSIF [1] | solubility kinetic [2] | solubility thermodynamic [3] | EC50 (human TLR7) | FaSSIF [4] | EC50 (human TLR7; read-out: HEK293-Blue-h TLR7 (EC50 (μM)), HEK293-Blue-hTLR7 cells, 20 hrs incubation, SEAP reporter)
CN(C)CCNc1ccc(Cn2c(=O)[nH]c3c(N)nc(P(C)(C)=O)nc32)cn1 [Example 1, 6-amino-9-[[6-[2-(dimethylamino)ethylamino]-3-pyridyl]methyl]-2-dimethylphosphoryl-7H-purin-8-one] | 3077 µg/mL | > 540 µg/mL | 929 µg/mL (≈ 2.3 mM) | 0.034 µM | 2527 µg/mL | 
CN(C)CCOc1ccc(Cn2c(=O)[nH]c3c(N)nc(P(C)(C)=O)nc32)cn1 [Example 2, 6-amino-9-[[6-[2-(dimethylamino)ethoxy]-3-pyridyl]methyl]-2-dimethylphosphoryl-7H-purin-8-one] | 4801 µg/mL | > 540 µg/mL | 2780 µg/mL (≈ 6.85 mM) | 0.019 µM | 3519 µg/mL | 
CC[P@@](C)(=O)c1nc(N)c2[nH]c(=O)n(Cc3ccc(N4CCN(C)CC4)nc3)c2n1 [Example 13-A, 6-amino-2-[(R)-ethyl(methyl)phosphoryl]-9-[[6-(4-methylpiperazin-1-yl)-3-pyridyl]methyl]-7H-purin-8-one] | 4672 µg/mL | > 530 µg/mL | 2380 µg/mL (≈ 5.53 mM) |  | 2368 µg/mL | 
CC[P@@](C)(=O)c1nc(N)c2[nH]c(=O)n(Cc3ccc(NCCN(C)C)nc3)c2n1 [Example 15-A, 6-amino-9-[[6-[2-(dimethylamino)ethylamino]-3-pyridyl]methyl]-2-[(R)-ethyl(methyl)phosphoryl]-7H-purin-8-one] | 3987 µg/mL | > 560 µg/mL | 4060 µg/mL (≈ 9.7 mM) | 0.018 µM | 3074 µg/mL | 
CC[P@@](C)(=O)c1nc(N)c2[nH]c(=O)n(Cc3ccc(OCCN(C)C)nc3)c2n1 [Example 16-A, 6-amino-9-[[6-[2-(dimethylamino)ethoxy]-3-pyridyl]methyl]-2-[(R)-ethyl(methyl)phosphoryl]-7H-purin-8-one] | 2371 µg/mL | > 560 µg/mL | 1900 µg/mL (≈ 4.53 mM) |  | 1799 µg/mL | 
CC[P@](C)(=O)c1nc(N)c2[nH]c(=O)n(Cc3ccc(OCCN(C)C)nc3)c2n1 [Example 16-B, 6-amino-9-[[6-[2-(dimethylamino)ethoxy]-3-pyridyl]methyl]-2-[(S)-ethyl(methyl)phosphoryl]-7H-purin-8-one] | 1464 µg/mL | > 560 µg/mL | 3450 µg/mL (≈ 8.23 mM) |  | 784 µg/mL | 
CCCS(=N)(=O)c1nc(N)c2[nH]c(=O)n(Cc3ccc(Cl)nc3)c2n1 (stereo not drawn) [RO14, reference compound] | 21 µg/mL | 69 µg/mL | 33 µg/mL (≈ 0.0864 mM) |  | 14 µg/mL | 0.017 µM

From patent publication US20250215032A1, “PHOSPHORYLPURINONE COMPOUNDS FOR THE TREATMENT OF CANCER” (Hoffmann-La Roche Inc., priority 2022, published 2025)
